# Data reported in PMC3523469 (Investigational New Drugs, 2012).
# Read-outs that look alike come from different tables or passages of the source.
# Format: in vivo, Japanese patients
# Conditions: 15 mg QD (n = 3)
compound,measurement,setting,value
"COc1cc2ncnc(Nc3ccc(F)c(Cl)c3)c2cc1NC(=O)/C=C/CN1CCCCC1 [dacomitinib, Dacomitinib]","Alanine aminotransferase increased, number of patients with treatment-related AE",All,0
same,"Aspartate aminotransferase increased, number of patients with treatment-related AE",All,0
same,"Blood bilirubin increased, number of patients with treatment-related AE",All,0
same,"Cheilitis, number of patients with treatment-related AE",All,2
same,"Conjunctivitis, number of patients with treatment-related AE",All,0
same,"Decreased appetite, number of patients with treatment-related AE",All,0
same,"Diarrhea, number of patients with treatment-related AE",All,2
same,"Dry skin, number of patients with treatment-related AE",All,2
same,"ECG QT prolonged, number of patients with treatment-related AE",All,2
same,"Edema, number of patients with treatment-related AE",All,0
same,"Fatigue, number of patients with treatment-related AE",All,0
same,"Hematuria, number of patients with treatment-related AE",All,0
same,"Hypertrichosis, number of patients with treatment-related AE",All,0
same,"Leukopenia, number of patients with treatment-related AE",All,0
same,"Nausea, number of patients with treatment-related AE",All,0
same,"Palmar–plantar erythrodysesthesia, number of patients with treatment-related AE",All,1
same,"Paronychia, number of patients with treatment-related AE",All,1
same,"Proteinuria, number of patients with treatment-related AE",All,0
same,"Rash, number of patients with treatment-related AE",All,3
same,"Skin fissures, number of patients with treatment-related AE",All,0
same,"Stomatitis, number of patients with treatment-related AE",All,1
same,"Weight decreased, number of patients with treatment-related AE",All,0
same,"Alanine aminotransferase increased, number of patients with treatment-related AE",G1,0
same,"Aspartate aminotransferase increased, number of patients with treatment-related AE",G1,0
same,"Blood bilirubin increased, number of patients with treatment-related AE",G1,0
same,"Cheilitis, number of patients with treatment-related AE",G1,2
same,"Conjunctivitis, number of patients with treatment-related AE",G1,0
same,"Decreased appetite, number of patients with treatment-related AE",G1,0
same,"Diarrhea, number of patients with treatment-related AE",G1,2
same,"Dry skin, number of patients with treatment-related AE",G1,1
same,"ECG QT prolonged, number of patients with treatment-related AE",G1,1
same,"Edema, number of patients with treatment-related AE",G1,0
same,"Fatigue, number of patients with treatment-related AE",G1,0
same,"Hematuria, number of patients with treatment-related AE",G1,0
same,"Hypertrichosis, number of patients with treatment-related AE",G1,0
same,"Leukopenia, number of patients with treatment-related AE",G1,0
same,"Nausea, number of patients with treatment-related AE",G1,0
same,"Palmar–plantar erythrodysesthesia, number of patients with treatment-related AE",G1,1
same,"Paronychia, number of patients with treatment-related AE",G1,0
same,"Proteinuria, number of patients with treatment-related AE",G1,0
same,"Rash, number of patients with treatment-related AE",G1,2
same,"Skin fissures, number of patients with treatment-related AE",G1,0
same,"Stomatitis, number of patients with treatment-related AE",G1,1
same,"Weight decreased, number of patients with treatment-related AE",G1,0
same,"Alanine aminotransferase increased, number of patients with treatment-related AE",G2,0
same,"Aspartate aminotransferase increased, number of patients with treatment-related AE",G2,0
same,"Blood bilirubin increased, number of patients with treatment-related AE",G2,0
same,"Cheilitis, number of patients with treatment-related AE",G2,0
same,"Conjunctivitis, number of patients with treatment-related AE",G2,0
same,"Decreased appetite, number of patients with treatment-related AE",G2,0
same,"Diarrhea, number of patients with treatment-related AE",G2,0
same,"Dry skin, number of patients with treatment-related AE",G2,1
same,"ECG QT prolonged, number of patients with treatment-related AE",G2,1
same,"Edema, number of patients with treatment-related AE",G2,0
same,"Fatigue, number of patients with treatment-related AE",G2,0
same,"Hematuria, number of patients with treatment-related AE",G2,0
same,"Hypertrichosis, number of patients with treatment-related AE",G2,0
same,"Leukopenia, number of patients with treatment-related AE",G2,0
same,"Nausea, number of patients with treatment-related AE",G2,0
same,"Palmar–plantar erythrodysesthesia, number of patients with treatment-related AE",G2,0
same,"Paronychia, number of patients with treatment-related AE",G2,1
same,"Proteinuria, number of patients with treatment-related AE",G2,0
same,"Rash, number of patients with treatment-related AE",G2,1
same,"Skin fissures, number of patients with treatment-related AE",G2,0
same,"Stomatitis, number of patients with treatment-related AE",G2,0
same,"Weight decreased, number of patients with treatment-related AE",G2,0
same,"Alanine aminotransferase increased, number of patients with treatment-related AE",G3,0
same,"Aspartate aminotransferase increased, number of patients with treatment-related AE",G3,0
same,"Blood bilirubin increased, number of patients with treatment-related AE",G3,0
same,"Cheilitis, number of patients with treatment-related AE",G3,0
same,"Conjunctivitis, number of patients with treatment-related AE",G3,0
same,"Decreased appetite, number of patients with treatment-related AE",G3,0
same,"Diarrhea, number of patients with treatment-related AE",G3,0
same,"Dry skin, number of patients with treatment-related AE",G3,0
same,"ECG QT prolonged, number of patients with treatment-related AE",G3,0
same,"Edema, number of patients with treatment-related AE",G3,0
same,"Fatigue, number of patients with treatment-related AE",G3,0
same,"Hematuria, number of patients with treatment-related AE",G3,0
same,"Hypertrichosis, number of patients with treatment-related AE",G3,0
same,"Leukopenia, number of patients with treatment-related AE",G3,0
